The values that follow come from the supplement of paper PMC11208160.

The series can be described thus: recombinant barcode read abundance after kanamycin selection (control-corrected) (log10(CPM+1)); higher = more efficient recombination; sequences stand for … in AGTGCAGAGAAAATCGGCCAGTTTTCTCTGCCTGCAGTCCGCATGCCGT…AGATTTATGCAGCGGACTGCCTTTCTCCCAAAGTGATAAACCGGACAGTATCATGGACCGGTTTTCCCGGTAATCCGTATTTGCAAGGTTGGTTTCACT; site = the 11-nt target. Summed up: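 A promoter, a target, a barcode and the first 104 bridge RNA bases under J23119 made up each oligo. Oligos were Gibson-cloned into a vector bearing the other 73 bp and a T7-inducible recombinase, then co-electroporated into E. coli with a donor plasmid and plated in duplicate on chloramphenicol/ampicillin LB agar (control) or chloramphenicol/ampicillin/kanamycin with 0.1 mM IPTG. Recombination efficiency is the averaged, control-corrected counts per million of recombinant-junction barcodes. Reported values are log10(CPM+1).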
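Also: IS621 recombinase and bridge RNA in Escherichia coli cells.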

Turning to “ACTTGACCTTGGGTTCTAACCTGTTGCAG (site ACTTGACCTCT)”, the “recombinant barcode read abundance (log10)” value amounted to 1.83.
With “ACTTGACCTTGGGTTCTAACCTGTTGCAG (site ATTTGACCTCG)”, the “recombinant barcode read abundance (log10)” value is 0.0223.
Consider “ACTTGTTCTTGGGTTCTAACCTGTTGCCT (site ACTTGTTCTAG)”, for which the “recombinant barcode read abundance (log10)” value was 0.567.
In the case of “ACTTGTTCTTGGGTTCTAACCTGTTGCCT (site CCTTGTTCTAG)”, the “recombinant barcode read abundance (log10)” value was determined as 0.202.
As for “ACTTGTTCTTGGGTTCTAACCTGTTGCCT (site GCTTGTTCTAG)”, the “recombinant barcode read abundance (log10)” value was determined as 0.157.
As to “ACTTGTTCTTGGGTTCTAACCTGTTGCCT (site TCTTGTTCTAG)”, the “recombinant barcode read abundance (log10)” value worked out at 0.0997.
With “ACTTTAGCTTGGGTTCTAACCTGTTGCTT (site ACTTGAACTAA)”, the “recombinant barcode read abundance (log10)” value was found to be 0.438.
“ACTTTAGCTTGGGTTCTAACCTGTTGCTT (site ACTTTAGCTAA)”: the “recombinant barcode read abundance (log10)” value turned out to be 0.399.
Under “AGAAAAGCTTGGGTTCTAACCTGTTGCAA (site AGAAAAGCTTT)” stands 1.06; under “AGAAAAGCTTGGGTTCTAACCTGTTGCAA (site CATGCTTCTAG)”, 0.295; under “AGAAAGGCTTGGGTTCTAACCTGTTGCGC (site AGAAAGGCTGC)”, 2.32.
In the case of “AGAAAGGCTTGGGTTCTAACCTGTTGCGC (site GTGGGCACTAG)”, the “recombinant barcode read abundance (log10)” value came out at 0.0408.
“AGAACGTCTTGGGTTCTAACCTGTTGCCT (site AGAACGTCTAG)”: the “recombinant barcode read abundance (log10)” value came out at 1.09.
For the sequence “AGAACGTCTTGGGTTCTAACCTGTTGCCT (site AGAATGTCTAG)”, the “recombinant barcode read abundance (log10)” value amounted to 0.0292.
“AGAACTCCTTGGGTTCTAACCTGTTGCTG (site AGAACTCCTCA)”: the “recombinant barcode read abundance (log10)” value was 0.323.
With “AGAACTCCTTGGGTTCTAACCTGTTGCTG (site TCTTGCTCTAG)”, the “recombinant barcode read abundance (log10)” value came out at 0.0485.
For the sequence “AGAAGTCCTTGGGTTCTAACCTGTTGCGG (site AGAAGTCCTCA)”, the “recombinant barcode read abundance (log10)” value is 0.0978.
As to “AGAAGTCCTTGGGTTCTAACCTGTTGCGG (site AGAAGTCCTCC)”, the “recombinant barcode read abundance (log10)” value turned out to be 1.91.
Then “AGAAGTCCTTGGGTTCTAACCTGTTGCGG (site AGAAGTCCTCG)”, with 0.101; and “AGAAGTCCTTGGGTTCTAACCTGTTGCGG (site AGAAGTCCTCT)”, with 1.32; and “AGACAGACTTGGGTTCTAACCTGTTGCGT (site AGACAGACTAC)”, with 3.32.
As to “AGACAGACTTGGGTTCTAACCTGTTGCGT (site CAGAGCTCTCG)”, the “recombinant barcode read abundance (log10)” value is 0.0309.
Regarding “AGACCATCTTGGGTTCTAACCTGTTGCCT (site AGACCATCTAG)”, the “recombinant barcode read abundance (log10)” value worked out at 0.751.
For the sequence “AGACCATCTTGGGTTCTAACCTGTTGCCT (site AGATCATCTAA)”, the “recombinant barcode read abundance (log10)” value amounted to 0.162.
Consider “AGACCCTCTTGGGTTCTAACCTGTTGCCT (site AGACCCTCTAG)”, for which the “recombinant barcode read abundance (log10)” value worked out at 2.91.
For “AGACCCTCTTGGGTTCTAACCTGTTGCCT (site CGACCCTCTAG)”, the “recombinant barcode read abundance (log10)” value was 0.728.
Take “AGACCCTCTTGGGTTCTAACCTGTTGCCT (site GGACCCTCTAG)”: the “recombinant barcode read abundance (log10)” value came out at 0.304.
Then “AGACCCTCTTGGGTTCTAACCTGTTGCCT (site TGACCCTCTAG)”, with 1.3.
Regarding “AGACGACCTTGGGTTCTAACCTGTTGCGG (site AGACGACCTCC)”, the “recombinant barcode read abundance (log10)” value worked out at 2.95.
Consider “AGACGACCTTGGGTTCTAACCTGTTGCGG (site GTCATGTCTGA)”, for which the “recombinant barcode read abundance (log10)” value was 0.016.
“AGACTAACTTGGGTTCTAACCTGTTGCCT (site AAACTAACTAG)”: the “recombinant barcode read abundance (log10)” value is 0.124.
“AGACTAACTTGGGTTCTAACCTGTTGCCT (site ACACTAACTAG)”: the “recombinant barcode read abundance (log10)” value amounted to 0.0816.
For “AGACTAACTTGGGTTCTAACCTGTTGCCT (site AGACTAACTAG)”, the “recombinant barcode read abundance (log10)” value came out at 1.54.
With “AGACTAACTTGGGTTCTAACCTGTTGCCT (site ATACTAACTAG)”, the “recombinant barcode read abundance (log10)” value is 0.29.
Then “AGACTCCCTTGGGTTCTAACCTGTTGCAC (site ACACGCCCTGT)”, with 0.0745; and “AGACTCCCTTGGGTTCTAACCTGTTGCAC (site AGACTCCCTGT)”, with 2.08; and “AGACTGACTTGGGTTCTAACCTGTTGCGG (site AGACTGACTCC)”, with 2.18.
For “AGACTGACTTGGGTTCTAACCTGTTGCGG (site TCCAAATCTAG)”, the “recombinant barcode read abundance (log10)” value is 0.232.
In the case of “AGACTGGCTTGGGTTCTAACCTGTTGCCT (site AGACTGGCTAG)”, the “recombinant barcode read abundance (log10)” value was found to be 1.03.
Take “AGACTGGCTTGGGTTCTAACCTGTTGCCT (site CGACAGGCTAG)”: the “recombinant barcode read abundance (log10)” value came to 0.176.
Under “AGAGAGGCTTGGGTTCTAACCTGTTGCGG (site AGAGAGGCTCC)” stands 1.82; under “AGAGAGGCTTGGGTTCTAACCTGTTGCGG (site CGAGAGTCTCC)”, 0.125.
On to “AGAGAGTCTTGGGTTCTAACCTGTTGCTT (site AGAGAGTCTAA)”, for which the “recombinant barcode read abundance (log10)” value worked out at 1.99.
With “AGAGAGTCTTGGGTTCTAACCTGTTGCTT (site ATAGAGTCTAA)”, the “recombinant barcode read abundance (log10)” value amounted to 0.602.
For “AGAGCGACTTGGGTTCTAACCTGTTGCCT (site AGAGAGACTAG)”, the “recombinant barcode read abundance (log10)” value is 0.127.
Under “AGAGCGACTTGGGTTCTAACCTGTTGCCT (site AGAGCGACTAG)” stands 0.727.
For the sequence “AGAGCGACTTGGGTTCTAACCTGTTGCCT (site AGAGGGACTAG)”, the “recombinant barcode read abundance (log10)” value amounted to 0.587.
With “AGAGCGACTTGGGTTCTAACCTGTTGCCT (site AGAGTGACTAG)”, the “recombinant barcode read abundance (log10)” value came out at 0.0332.
On to “AGAGCGACTTGGGTTCTAACCTGTTGCTA (site AGAGCGACTTA)”, for which the “recombinant barcode read abundance (log10)” value was determined as 0.654.
For the sequence “AGAGCGACTTGGGTTCTAACCTGTTGCTA (site CTCTACCCTCT)”, the “recombinant barcode read abundance (log10)” value worked out at 0.147.
Under “AGAGCTCCTTGGGTTCTAACCTGTTGCCG (site AGAGCTCCTCG)” stands 1.03.
“AGAGCTCCTTGGGTTCTAACCTGTTGCCG (site AGATCTCCTAG)”: the “recombinant barcode read abundance (log10)” value came to 0.468.
Consider “AGAGGAGCTTGGGTTCTAACCTGTTGCAG (site AGAGATGCTCT)”, for which the “recombinant barcode read abundance (log10)” value was 0.115.
Then “AGAGGAGCTTGGGTTCTAACCTGTTGCAG (site AGAGGAGCTCT)”, with 1.79.
“AGAGGGACTTGGGTTCTAACCTGTTGCCT (site AGAGAGACTAG)”: the “recombinant barcode read abundance (log10)” value turned out to be 1.25.
On to “AGAGGGACTTGGGTTCTAACCTGTTGCCT (site AGAGCGACTAG)”, for which the “recombinant barcode read abundance (log10)” value worked out at 0.0189.
In the case of “AGAGGGACTTGGGTTCTAACCTGTTGCCT (site AGAGGGACTAG)”, the “recombinant barcode read abundance (log10)” value amounted to 2.34.
On to “AGAGGGACTTGGGTTCTAACCTGTTGCCT (site AGAGTGACTAG)”, for which the “recombinant barcode read abundance (log10)” value was 0.0172.
“AGAGTAGCTTGGGTTCTAACCTGTTGCAC (site AGAGTAGCTGT)”: the “recombinant barcode read abundance (log10)” value was 2.41.
“AGAGTAGCTTGGGTTCTAACCTGTTGCAC (site GTTTATACTTG)”: the “recombinant barcode read abundance (log10)” value was found to be 0.0243.
Turning to “AGAGTAGCTTGGGTTCTAACCTGTTGCTA (site AGAGTAGCTTA)”, the “recombinant barcode read abundance (log10)” value amounted to 1.31.
For the sequence “AGAGTAGCTTGGGTTCTAACCTGTTGCTA (site CTCCCGACTGC)”, the “recombinant barcode read abundance (log10)” value came out at 0.0353.
As for “AGATAGCCTTGGGTTCTAACCTGTTGCCT (site AGATAGCCTAG)”, the “recombinant barcode read abundance (log10)” value was determined as 2.01.
Under “AGATAGCCTTGGGTTCTAACCTGTTGCCT (site CGATAGCCTAG)” stands 0.102; under “AGATAGCCTTGGGTTCTAACCTGTTGCCT (site GGATAGCCTAG)”, 0.157.
On to “AGATAGCCTTGGGTTCTAACCTGTTGCCT (site TGATAGCCTAG)”, for which the “recombinant barcode read abundance (log10)” value worked out at 0.206.
Under “AGATCCACTTGGGTTCTAACCTGTTGCCT (site AGATCCACTAG)” stands 0.832; under “AGATCCACTTGGGTTCTAACCTGTTGCCT (site CGATCCACTAG)”, 0.0967; under “AGATCCACTTGGGTTCTAACCTGTTGCCT (site GGATCCACTAG)”, 0.0847.
Regarding “AGATCCACTTGGGTTCTAACCTGTTGCCT (site TGATCCACTAG)”, the “recombinant barcode read abundance (log10)” value amounted to 0.0724.
For the sequence “AGATGGACTTGGGTTCTAACCTGTTGCAG (site AGATGGACTCT)”, the “recombinant barcode read abundance (log10)” value stood at 2.52.
In the case of “AGATGGACTTGGGTTCTAACCTGTTGCAG (site AGATGGCCTAT)”, the “recombinant barcode read abundance (log10)” value was determined as 0.0344.
As for “AGATTCGCTTGGGTTCTAACCTGTTGCCG (site AGATTCCCTCG)”, the “recombinant barcode read abundance (log10)” value was determined as 0.0487.
As to “AGATTCGCTTGGGTTCTAACCTGTTGCCG (site AGATTCGCTCG)”, the “recombinant barcode read abundance (log10)” value came to 0.941.
Turning to “AGATTTACTTGGGTTCTAACCTGTTGCCT (site AAACTTACTAG)”, the “recombinant barcode read abundance (log10)” value was 1.28.
Under “AGATTTACTTGGGTTCTAACCTGTTGCCT (site AGATTTACTAG)” stands 0.143; under “AGCACGACTTGGGTTCTAACCTGTTGCTG (site AGCACGACTCA)”, 0.684.
